The values below come from patent US4228292A, “N-Substituted benzothiazolines and benzoxazolines and their use as herbicides and plant growth regulants” (Monsanto Company, priority 1978, dated 1980).

The test system of one assay is soybean plants. Put plainly: plant growth regulating activity on soybean plants. It counts as in vivo, variety Williams. The method, then: A number of soybean plants, variety Williams, were grown from seeds in plastic pots in the greenhouse for a period of one week at which time the plants are thinned to one plant per pot. When the second trifoliate leaf (three weeks) was fully expanded, the plants were treated with a solution of the active ingredient in acetone and water. Aqueous Tween 20 was used as a surfactant.
When the fifth trifoliate leaf (four to five weeks) was fully expanded, the treated plants were compared with the non-treated control plants and the observations recorded.

Assay [1] deals with Sugar Beet. Put plainly: post-emergent herbicidal test. Also: ranges in brackets are in %. It counts as in vivo. The conditions noted are these: M. The method, then:
(§1) The post-emergent tests were conducted as follows:
(§2) The herbicidal active ingredients are applied in spray form to two or three-week old specimens of various plant species. The spray, a solution or wettable powder suspension containing the appropriate rate of herbicidal active ingredient to give the desired test rate and a surfactant, is applied to the plants. The treated plants are placed in a greenhouse and approximately two or four weeks later the effects are observed and recorded. The results are shown in Tables IX and X in which the post-emergent herbicidal rating code is as follows: […]

For assay [2], the system named is Hemp Sesbania. The assay is described as follows: post-emergent herbicidal test. Also: ranges in brackets are in %. In kind it is in vivo. Conditions: R. The method, then: as §1, §2
Assay [3] has as its system Wild Buckwheat. Put plainly: post-emergent herbicidal test. Also: ranges in brackets are in %. It counts as in vivo. Conditions: Q. The procedure: as §1, §2
The test system of assay [4] is Soybean. The assay is described as follows: post-emergent herbicidal test. Also: ranges in brackets are in %. In kind it is in vivo. Conditions: L. The procedure:
as §1, §2

The test system of assay [5] is Rice. Put plainly: post-emergent herbicidal test. Also: ranges in brackets are in %. It counts as in vivo. The conditions noted are these: O. The method, then:
as §1, §2

Assay [6] relates to Crabgrass. Put plainly: post-emergent herbicidal test. Also: ranges in brackets are in %. It counts as in vivo. The conditions noted are these: T. The procedure: as §1, §2
Assay [7] deals with Panicum Spp. The assay is described as follows: post-emergent herbicidal test. Also: ranges in brackets are in %. It counts as in vivo. Conditions: S. The procedure:
as §1, §2

Assay [8] concerns Sorghum. The assay is described as follows: post-emergent herbicidal test. Also: ranges in brackets are in %. It counts as in vivo. The conditions noted are these: P. The method, then: as §1, §2
In assay [9] the test system is Wheat. Put plainly: post-emergent herbicidal test. Also: ranges in brackets are in %. In kind it is in vivo. Conditions: N. The procedure:
as §1, §2

The subject of assay [10] is Sugar Beet. The assay is described as follows: pre-emergent herbicidal test. Also: ranges in brackets are in %. It counts as in vivo. The conditions noted are these: M. The method, then:
(§3) The pre-emergent test was conducted as follows:
(§4) A good grade of top soil was placed in aluminum pans and compactd to a depth of 0.95 to 1.27 cm. from the top of the pan. On the top of the soil was placed a predetermined number of seeds or vegetative propagules of various plant species. The soil required to level fill the pans after seeding or adding vegetative propagules was weighed into a pan. A known amount of the herbicidal active ingredient applied in a solvent or as a wettable powder and the soil were thoroughly mixed, and used as a cover layer for prepared pans. After treatment the pans were moved into a greenhouse bench where they were watered from below as needed to give adequate moisture for germination and growth.
(§5) A herbicidal rating code was used to signify the extent of phytotoxicity of each species. The ratings are defined as follows: […]

Assay [11] concerns Hemp Sesbania. The assay is described as follows: pre-emergent herbicidal test. Also: ranges in brackets are in %. In kind it is in vivo. Conditions: R. The procedure: as §3, §4, §5
Assay [12] deals with Wild Buckwheat. The assay is described as follows: pre-emergent herbicidal test. Also: ranges in brackets are in %. It counts as in vivo. The conditions noted are these: Q. The method, then: as §3, §4, §5
Assay [13] concerns Soybean. The assay is described as follows: pre-emergent herbicidal test. Also: ranges in brackets are in %. The conditions noted are these: L. It counts as in vivo. The procedure: as §3, §4, §5
The test system of assay [14] is Rice. The assay is described as follows: pre-emergent herbicidal test. Also: ranges in brackets are in %. Conditions: O. In kind it is in vivo. The method, then:
as §3, §4, §5

The subject of assay [15] is Crabgrass. The assay is described as follows: pre-emergent herbicidal test. Also: ranges in brackets are in %. In kind it is in vivo. The conditions noted are these: T. The procedure: as §3, §4, §5
Assay [16] has as its system Panicum Spp. Put plainly: pre-emergent herbicidal test. Also: ranges in brackets are in %. It counts as in vivo. Conditions: S. The procedure:
as §3, §4, §5

Assay [17] concerns Sorghum. Put plainly: pre-emergent herbicidal test. Also: ranges in brackets are in %. In kind it is in vivo. The conditions noted are these: P. The procedure:
as §3, §4, §5

Assay [18] concerns Wheat. The assay is described as follows: pre-emergent herbicidal test. Also: ranges in brackets are in %. It counts as in vivo. Conditions: N. The method, then: as §3, §4, §5

Turning to `COC(=N)CCCn1c(=O)sc2ccccc21` [Compound 18], the “plant growth regulant observations” value in the assay on soybean plants (0.112 kg/h) and in the assay on soybean plants (0.56 kg/h) was “No response” each time.

On to `COC(=N)Cn1c(=O)sc2cc(Br)ccc21` [Compound 20], for which, in the assay on soybean plants (0.112 kg/h), the “plant growth regulant observations” value is given as “Leaf alteration of new growth”.

`COC(=N)Cn1c(=O)oc2ccccc21` [Compound 22]: the “plant growth regulant observations” value in the assay on soybean plants (0.56 kg/h) is listed as “Leaf alteration of new growth”.

Consider `COC(=N)Cn1c(=O)sc2ccccc21` [Compound 24], for which the post-emergent herbicidal rating in the assay on Sugar Beet [1] (0.056 kg/h, 2 WAT) is 1 (25-49); in the assay on Sugar Beet [1] (0.28 kg/h, 4 WAT) it was 1 (25-49); with Sugar Beet [1] (1.12 kg/h, 4 WAT), 2 (50-74); in the assay with Sugar Beet [1] (5.6 kg/h, 4 WAT), 3 (75-99); in the assay with Hemp Sesbania [2] (0.056 kg/h, 2 WAT), 0 (0-24); in the assay on Hemp Sesbania [2] (0.28 kg/h, 4 WAT) it was 1 (25-49). Moreover, the post-emergent herbicidal rating in the assay on Hemp Sesbania [2] (1.12 kg/h, 4 WAT) is on record as 2 (50-74); in the assay on Hemp Sesbania [2] (5.6 kg/h, 4 WAT) it was 4 (100); with Wild Buckwheat [3] (0.056 kg/h, 2 WAT), 1 (25-49); in the assay on Wild Buckwheat [3] (0.28 kg/h, 4 WAT) it was 1 (25-49); with Wild Buckwheat [3] (1.12 kg/h, 4 WAT), 4 (100); in the assay on Wild Buckwheat [3] (5.6 kg/h, 4 WAT), 4 (100). The post-emergent herbicidal rating in the assay with Soybean [4] (0.056 kg/h, 2 WAT) was 1 (25-49); with Soybean [4] (0.28 kg/h, 4 WAT), 1 (25-49); in the assay with Soybean [4] (1.12 kg/h, 4 WAT), 2 (50-74); in the assay with Soybean [4] (5.6 kg/h, 4 WAT), 2 (50-74); in the assay on Rice [5] (0.056 kg/h, 2 WAT) it was 0 (0-24); in the assay on Rice [5] (0.28 kg/h, 4 WAT), 0 (0-24). Besides, the post-emergent herbicidal rating with Rice [5] (1.12 kg/h, 4 WAT) is listed as 1 (25-49); in the assay with Rice [5] (5.6 kg/h, 4 WAT), 0 (0-24); with Crabgrass [6] (0.056 kg/h, 2 WAT), 0 (0-24); with Crabgrass [6] (0.28 kg/h, 4 WAT), 0 (0-24); in the assay on Crabgrass [6] (1.12 kg/h, 4 WAT), 0 (0-24); in the assay with Crabgrass [6] (5.6 kg/h, 4 WAT), 0 (0-24). Also, the post-emergent herbicidal rating in the assay on Panicum Spp [7] (0.056 kg/h, 2 WAT) is recorded as 0 (0-24); in the assay with Panicum Spp [7] (0.28 kg/h, 4 WAT) it was 0 (0-24); with Panicum Spp [7] (1.12 kg/h, 4 WAT), 0 (0-24); in the assay on Panicum Spp [7] (5.6 kg/h, 4 WAT), 0 (0-24); in the assay with Sorghum [8] (0.056 kg/h, 2 WAT) it was 0 (0-24); in the assay with Sorghum [8] (0.28 kg/h, 4 WAT), 0 (0-24). For the same molecule, the post-emergent herbicidal rating is on record as 1 (25-49) with Sorghum [8] (1.12 kg/h, 4 WAT); 1 (25-49) in the assay on Sorghum [8] (5.6 kg/h, 4 WAT); 0 (0-24) in the assay on Wheat [9] (0.056 kg/h, 2 WAT); 0 (0-24) in the assay with Wheat [9] (0.28 kg/h, 4 WAT); 0 (0-24) with Wheat [9] (1.12 kg/h, 4 WAT); 1 (25-49) in the assay with Wheat [9] (5.6 kg/h, 4 WAT). Besides, the pre-emergent herbicidal rating in the assay with Sugar Beet [10] (1.12 kg/h, 4 WAT) was 1 (25-49); in the assay on Sugar Beet [10] (5.6 kg/h, 4 WAT), 3 (75-100); with Hemp Sesbania [11] (1.12 kg/h, 4 WAT), 1 (25-49); in the assay with Hemp Sesbania [11] (5.6 kg/h, 4 WAT), 3 (75-100); in the assay with Wild Buckwheat [12] (1.12 kg/h, 4 WAT), 1 (25-49); with Wild Buckwheat [12] (5.6 kg/h, 4 WAT), 3 (75-100). Also, the pre-emergent herbicidal rating in the assay on Soybean [13] (1.12 kg/h, 4 WAT) is given as 2 (50-74); with Soybean [13] (5.6 kg/h, 4 WAT), 3 (75-100); with Rice [14] (1.12 kg/h, 4 WAT), 0 (0-24); in the assay on Rice [14] (5.6 kg/h, 4 WAT) it was 1 (25-49); in the assay with Crabgrass [15] (1.12 kg/h, 4 WAT), 0 (0-24); with Crabgrass [15] (5.6 kg/h, 4 WAT), 1 (25-49). Moreover, the pre-emergent herbicidal rating with Panicum Spp [16] (1.12 kg/h, 4 WAT) is listed as 0 (0-24); with Panicum Spp [16] (5.6 kg/h, 4 WAT), 0 (0-24); with Sorghum [17] (1.12 kg/h, 4 WAT) it was 0 (0-24); with Sorghum [17] (5.6 kg/h, 4 WAT) it was 0 (0-24); with Wheat [18] (1.12 kg/h, 4 WAT) it was 1 (25-49); in the assay on Wheat [18] (5.6 kg/h, 4 WAT), 1 (25-49).

Consider `COC(=N)C(C)n1c(=O)sc2ccccc21` (centres unmarked) [Compound 32], for which the “plant growth regulant observations” value in the assay on soybean plants (0.112 kg/h) is “Inhibition of dry weight”.

As for `COC(=N)Cn1c(=O)sc2cc(Br)ccc21` [Compound 33], in the assay with soybean plants (0.112 kg/h), the “plant growth regulant observations” value was “Inhibition of dry weight”. Moreover, the pre-emergent herbicidal rating with Sugar Beet [10] (0.28 kg/h, 2 WAT) was 0 (0-24); in the assay on Sugar Beet [10] (1.12 kg/h, 2 WAT), 0 (0-24); in the assay on Sugar Beet [10] (5.6 kg/h, 4 WAT) it was 1 (25-49); in the assay on Hemp Sesbania [11] (0.28 kg/h, 2 WAT), 0 (0-24); with Hemp Sesbania [11] (1.12 kg/h, 2 WAT), 0 (0-24); in the assay on Hemp Sesbania [11] (5.6 kg/h, 4 WAT), 0 (0-24). Also, the pre-emergent herbicidal rating with Wild Buckwheat [12] (0.28 kg/h, 2 WAT) is 0 (0-24); with Wild Buckwheat [12] (1.12 kg/h, 2 WAT), 0 (0-24); in the assay on Wild Buckwheat [12] (5.6 kg/h, 4 WAT), 1 (25-49); in the assay with Soybean [13] (0.28 kg/h, 2 WAT) it was 0 (0-24); in the assay with Soybean [13] (1.12 kg/h, 2 WAT), 0 (0-24); in the assay on Soybean [13] (5.6 kg/h, 4 WAT), 1 (25-49). Also, the pre-emergent herbicidal rating with Rice [14] (0.28 kg/h, 2 WAT) is recorded as 0 (0-24); with Rice [14] (1.12 kg/h, 2 WAT) it was 0 (0-24); with Rice [14] (5.6 kg/h, 4 WAT), 0 (0-24); with Crabgrass [15] (0.28 kg/h, 2 WAT), 0 (0-24); in the assay with Crabgrass [15] (1.12 kg/h, 2 WAT), 0 (0-24); in the assay on Crabgrass [15] (5.6 kg/h, 4 WAT), 0 (0-24). The pre-emergent herbicidal rating in the assay with Panicum Spp [16] (0.28 kg/h, 2 WAT) was 0 (0-24); in the assay with Panicum Spp [16] (1.12 kg/h, 2 WAT), 0 (0-24); in the assay on Panicum Spp [16] (5.6 kg/h, 4 WAT), 0 (0-24); with Sorghum [17] (0.28 kg/h, 2 WAT) it was 0 (0-24); with Sorghum [17] (1.12 kg/h, 2 WAT) it was 0 (0-24); in the assay on Sorghum [17] (5.6 kg/h, 4 WAT) it was 0 (0-24). Also, the pre-emergent herbicidal rating is 0 (0-24) in the assay with Wheat [18] (0.28 kg/h, 2 WAT); 0 (0-24) in the assay with Wheat [18] (1.12 kg/h, 2 WAT); 0 (0-24) with Wheat [18] (5.6 kg/h, 4 WAT).

Regarding `COC(=N)C(C)n1c(=O)sc2cc(Br)ccc21` (centres unmarked) [Compound 34], the “plant growth regulant observations” value in the assay with soybean plants (0.112 kg/h) is “Leaf alteration of new growth”.

For `COC(=N)Cn1c(=O)oc2ccccc21` [Compound 35], the “plant growth regulant observations” value in the assay with soybean plants (0.112 kg/h) and with soybean plants (0.56 kg/h) was “No response” each time.

On to `COC(=N)CCn1c(=O)sc2cc(Br)ccc21` [Compound 36], for which the “plant growth regulant observations” value in the assay with soybean plants (0.112 kg/h) and in the assay with soybean plants (0.56 kg/h) was “Leaf alteration of new growth” each time.
